According to US12479834B2, “Phenol compound or salt thereof” (TAIHO PHARMACEUTICAL CO., LTD., priority 2019, dated 2025):
One block for each compound: values may come before it.

Key:
NCI-H358 cells = experiment: Growth inhibition of KRAS-G12C mutant cell line NCI-H358 (CellTiter-Glo 2.0); assay type: cell-based; details: Homo sapiens, 72 h; NCI-H358, 3-day culture with compound
Method: KRAS-G12C mutant human lung cancer cell line NCI-H358 cells (ATCC, Cat #: CRL-5807) were suspended in RPMI1640 medium (manufactured by Fujifilm Wako Pure Chemical Corp.) containing 10% fetal bovine serum. The cell suspension was seeded at 500 cells/well into the wells of a 384-well flat-bottom microplate and cultured at 37° C. for 1 day in an incubator containing 5% CO2. The compound of the present invention was dissolved in DMSO and diluted with DMSO such that the concentration of the test compound was 500 times the final concentration. The solution of the test compound in DMSO was diluted with the medium used for suspending the cells, and the resultant was added to each well of the cell culture plate such that the final concentration of DMSO was 0.2%, followed by culture at 37° C. for another 3 days in an incubator containing 5% CO2.
Growth inhibition rate (%)=(C−T)/(C)×100 • T: the emission intensity in a well supplemented with the test compound. • C: the emission intensity in a well not supplemented with the test compound.

G12C K-Ras4B (1-169) = molecular target: T1, G12C K-Ras4B (1-169) (Homo sapiens, UniProt P01116, G12C); experiment: Binding to KRAS G12C mutant, compound binding rate by LC-MS; details: final compound concentration 2 μM, 1 μM protein, 2 hours at 25° C.
T1 construct: G12C K-Ras4B (1-169) protein, which was a KRAS G12C mutant; His tag (N, cleaved yes); made in house; host or cells: E. coli BL21 (DE3)
Outline: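 Covalent labelling at 2 μM final compound on a mix of 1 μM each wild-type and G12C K-Ras4B (1-169) (E. coli-expressed, tag removed) in 1×TBS, 0.1 mM TCEP, 2 h at 25° C., quenched with formic acid. Intact-protein ESI Q-TOF LC-MS; binding rate from adduct vs unbound protein signal, graded A–E in 20% bands.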

KRAS G12C mutant = molecular target: T2, KRAS G12C mutant (Homo sapiens, UniProt P01116, G12C); experiment: Inhibition of SOS1-mediated nucleotide (GDP-GTP) exchange reaction of KRAS G12C mutant, BODIPY FL GDP fluorescence; assay type: biochemical; details: preincubated 25° C. 4 hours with 25 nM KRAS G12C bound with BODIPY FL GDP; SOS1 100 nM, GppNHp 1 μM, 30 minutes
T2 construct: 50 μM G12C K-Ras4B (1-169) protein and 1 mM BODIPY® FL GDP; His tag (N, cleaved yes); made in house; host or cells: E. coli BL21 (DE3)
Outline: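 KRAS G12C (1-169) loaded with BODIPY FL GDP (25 nM) was preincubated with compound (5% DMSO) for 4 h at 25 °C. Exchange then ran 30 min with SOS1 (564-1049, 100 nM) and 1 µM GppNHp. IC50 came from the 485/520 nm fluorescence change, normalized to DMSO and no-GppNHp controls.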

SMILES: C=CC(=O)N1CC(NC(=O)c2ccc(CNc3cc(C(C)(C)C)c(Cl)cc3O)o2)C1 [Example 1, N-(1-Acryloylazetidin-3-yl)-5-(((5-(tert-butyl)-4-chloro-2-hydroxyphenyl)amino)methyl)furan-2-carboxamide]
IC50 (NCI-H358 cells): 4110 nM
binding rate for G12C K-Ras4B (1-169) (G12C K-Ras4B (1-169)): A (80% or more)
IC50 (KRAS G12C mutant): 326 nM

SMILES: C=CC(=O)N1CC(N(C)C(=O)c2ccc(CNc3cc(C(C)(C)C)c(Cl)cc3O)o2)C1 [Example 4, N-(1-Acryloylazetidin-3-yl)-5-(((5-(tert-butyl)-4-chloro-2-hydroxyphenyl)amino)methyl)-N-methylfuran-2-carboxamide]
IC50 (NCI-H358 cells): 1170 nM
binding rate for G12C K-Ras4B (1-169) (G12C K-Ras4B (1-169)): A (80% or more)
IC50 (KRAS G12C mutant): 11 nM

SMILES: C=CC(=O)N1CC(N(C)C(=O)c2nc(CNc3cc(C(C)(C)C)c(Cl)cc3O)cs2)C1 [Example 29, N-(1-Acryloylazetidin-3-yl)-4-(((5-(tert-butyl)-4-chloro-2-hydroxyphenyl)amino)methyl)-N-methylthiazole-2-carboxamide]
IC50 (NCI-H358 cells): 1110 nM
binding rate for G12C K-Ras4B (1-169) (G12C K-Ras4B (1-169)): A (80% or more)
IC50 (KRAS G12C mutant): 12 nM

SMILES: C=CC(=O)N1CC(N(CC)C(=O)c2ccc(CNc3cc(C(C)(C)C)c(Cl)cc3O)o2)C1 [Example 5, N-(1-Acryloylazetidin-3-yl)-5-(((5-(tert-butyl)-4-chloro-2-hydroxyphenyl)amino)methyl)-N-ethylfuran-2-carboxamide]
IC50 (NCI-H358 cells): 699 nM
binding rate for G12C K-Ras4B (1-169) (G12C K-Ras4B (1-169)): A (80% or more)
IC50 (KRAS G12C mutant): 12 nM

SMILES: C=CC(=O)N1CC(N(C)C(=O)c2csc(CNc3cc(C(C)(C)C)c(Cl)cc3O)n2)C1 [Example 32, N-(1-Acryloylazetidin-3-yl)-2-(((5-(tert-butyl)-4-chloro-2-hydroxyphenyl)amino)methyl)-N-methylthiazole-4-carboxamide]
binding rate for G12C K-Ras4B (1-169) (G12C K-Ras4B (1-169)): B (60% or more and less than 80%)
IC50 (KRAS G12C mutant): 64 nM

SMILES: C=CC(=O)N1CC(NC(=O)c2nc(CNc3cc(C(C)(C)C)c(Cl)cc3O)co2)C1 [Example 14, N-(1-Acryloylazetidin-3-yl)-4-(((5-(tert-butyl)-4-chloro-2-hydroxyphenyl)amino)methyl)oxazole-2-carboxamide]
binding rate for G12C K-Ras4B (1-169) (G12C K-Ras4B (1-169)): A (80% or more)
IC50 (KRAS G12C mutant): 420 nM

SMILES: C=CC(=O)N1CC(NC(=O)c2cnc(CNc3cc(C(C)(C)C)c(Cl)cc3O)[nH]2)C1 [Example 26, N-(1-Acryloylazetidin-3-yl)-2-(((5-(tert-butyl)-4-chloro-2-hydroxyphenyl)amino)methyl)-1H-imidazole-5-carboxamide]
binding rate for G12C K-Ras4B (1-169) (G12C K-Ras4B (1-169)): A (80% or more)
IC50 (KRAS G12C mutant): 212 nM

SMILES: C=CC(=O)N1CC(NC(=O)c2c(C)nc(CNc3nc([Si](C)(C)C)c(Cl)cc3O)n2C)C1 [Example 85, N-(1-Acryloylazetidin-3-yl)-2-(((5-chloro-3-hydroxy-6-(trimethylsilyl)pyridin-2-yl)amino)methyl)-1,4-dimethyl-1H-imidazole-5-carboxamide]
binding rate for G12C K-Ras4B (1-169) (G12C K-Ras4B (1-169)): C (40% or more and less than 60%)
IC50 (KRAS G12C mutant): 39 nM

Next, values leading:

IC50 (NCI-H358 cells): 708 nM
binding rate for G12C K-Ras4B (1-169) (G12C K-Ras4B (1-169)): A (80% or more)
IC50 (KRAS G12C mutant): 9 nM
SMILES: C=CC(=O)N1CC(NC(=O)c2cnc(CNc3cc(C(C)(C)C)c(Cl)cc3O)n2CCN(C)C)C1 [Example 38, N-(1-Acryloylazetidin-3-yl)-2-(((5-(tert-butyl)-4-chloro-2-hydroxyphenyl)amino)methyl)-1-(2-(dimethylamino)ethyl)-1H-imidazole-5-carboxamide]

IC50 (NCI-H358 cells): 281 nM
binding rate for G12C K-Ras4B (1-169) (G12C K-Ras4B (1-169)): A (80% or more)
IC50 (KRAS G12C mutant): 8 nM
SMILES: C=CC(=O)N1CC(NC(=O)c2c(C)nc(CNc3cc(C(C)(C)C)c(Cl)cc3O)n2CC)C1 [Example 41, N-(1-Acryloylazetidin-3-yl)-2-(((5-(tert-butyl)-4-chloro-2-hydroxyphenyl)amino)methyl)-1-ethyl-4-methyl-1H-imidazole-5-carboxamide]

IC50 (NCI-H358 cells): 916 nM
binding rate for G12C K-Ras4B (1-169) (G12C K-Ras4B (1-169)): A (80% or more)
IC50 (KRAS G12C mutant): 5 nM
SMILES: C=CC(=O)N1CC(NC(=O)c2c(C)nc(CNc3cc(C(C)(C)C)c(Cl)cc3O)n2Cc2cccnc2)C1 [Example 46, N-(1-Acryloylazetidin-3-yl)-2-(((5-(tert-butyl)-4-chloro-2-hydroxyphenyl)amino)methyl)-4-methyl-1-(pyridin-3-ylmethyl)-1H-imidazole-5-carboxamide]

IC50 (NCI-H358 cells): 399 nM
binding rate for G12C K-Ras4B (1-169) (G12C K-Ras4B (1-169)): A (80% or more)
IC50 (KRAS G12C mutant): 17 nM
SMILES: C=CC(=O)N1CC(NC(=O)c2c(C)nc(CNc3cc(C(C)(C)C)c(C)cc3O)n2C)C1 [Example 76, N-(1-Acryloylazetidin-3-yl)-2-(((5-(tert-butyl)-2-hydroxy-4-methylphenyl)amino)methyl)-1,4-dimethyl-1H-imidazole-5-carboxamide]

IC50 (NCI-H358 cells): 321 nM
binding rate for G12C K-Ras4B (1-169) (G12C K-Ras4B (1-169)): A (80% or more)
IC50 (KRAS G12C mutant): 13 nM
SMILES: C=CC(=O)N1CC(NC(=O)c2cnc(CNc3cc(C(C)(C)C)c(Cl)cc3O)n2CCOC)C1 [Example 37, N-(1-Acryloylazetidin-3-yl)-2-(((5-(tert-butyl)-4-chloro-2-hydroxyphenyl)amino)methyl)-1-(2-methoxyethyl)-1H-imidazole-5-carboxamide]

IC50 (NCI-H358 cells): 351 nM
binding rate for G12C K-Ras4B (1-169) (G12C K-Ras4B (1-169)): A (80% or more)
IC50 (KRAS G12C mutant): 7 nM
SMILES: C=CC(=O)N1CC(NC(=O)c2c(C)nc(CNc3cc(C(C)(C)C)c(Cl)cc3O)n2CCCC)C1 [Example 43, N-(1-Acryloylazetidin-3-yl)-1-butyl-2-(((5-(tert-butyl)-4-chloro-2-hydroxyphenyl)amino)methyl)-4-methyl-1H-imidazole-5-carboxamide]

IC50 (NCI-H358 cells): 511 nM
binding rate for G12C K-Ras4B (1-169) (G12C K-Ras4B (1-169)): A (80% or more)
IC50 (KRAS G12C mutant): 9 nM
SMILES: C=CC(=O)N1CC(NC(=O)c2c(C)nc(CNc3cc(C(C)(C)C)c(Cl)cc3O)n2CCC)C1 [Example 44, N-(1-Acryloylazetidin-3-yl)-2-(((5-(tert-butyl)-4-chloro-2-hydroxyphenyl)amino)methyl)-4-methyl-1-propyl-1H-imidazole-5-carboxamide]

IC50 (NCI-H358 cells): 301 nM
binding rate for G12C K-Ras4B (1-169) (G12C K-Ras4B (1-169)): A (80% or more)
IC50 (KRAS G12C mutant): 11 nM
SMILES: C=CC(=O)N1CC(NC(=O)c2c(C)nc(CNc3cc(C(C)(C)C)c(Cl)cc3O)n2C(C)C)C1 [Example 42, N-(1-Acryloylazetidin-3-yl)-2-(((5-(tert-butyl)-4-chloro-2-hydroxyphenyl)amino)methyl)-1-isopropyl-4-methyl-1H-imidazole-5-carboxamide]

IC50 (NCI-H358 cells): 993 nM
binding rate for G12C K-Ras4B (1-169) (G12C K-Ras4B (1-169)): A (80% or more)
IC50 (KRAS G12C mutant): 50 nM
SMILES: C=CC(=O)N1CC(NC(=O)c2c(C)nc(CNc3cc(C(C)(C)C)c(C)cc3O)n2C(C)C)C1 [Example 78, N-(1-Acryloylazetidin-3-yl)-2-(((5-(tert-butyl)-2-hydroxy-4-methylphenyl)amino)methyl)-1-isopropyl-4-methyl-1H-imidazole-5-carboxamide]

IC50 (NCI-H358 cells): 576 nM
binding rate for G12C K-Ras4B (1-169) (G12C K-Ras4B (1-169)): A (80% or more)
IC50 (KRAS G12C mutant): 16 nM
SMILES: C=CC(=O)N1CC(NC(=O)c2c(C)nc(CNc3cc(C(C)(C)C)c(Cl)cc3O)n2C2CCCC2)C1 [Example 45, N-(1-Acryloylazetidin-3-yl)-2-(((5-(tert-butyl)-4-chloro-2-hydroxyphenyl)amino)methyl)-1-cyclopentyl-4-methyl-1H-imidazole-5-carboxamide]

binding rate for G12C K-Ras4B (1-169) (G12C K-Ras4B (1-169)): A (80% or more)
IC50 (KRAS G12C mutant): 193 nM
SMILES: CN(C)C/C=C/C(=O)N1CC(N(C)C(=O)c2ccc(CNc3cc(C(C)(C)C)c(Cl)cc3O)o2)C1 [Example 87, (E)-5-(((5-(tert-Butyl)-4-chloro-2-hydroxyphenyl)amino)methyl)-N-(1-(4-(dimethylamino)but-2-enoyl)azetidin-3-yl)-N-methylfuran-2-carboxamide]

binding rate for G12C K-Ras4B (1-169) (G12C K-Ras4B (1-169)): A (80% or more)
IC50 (KRAS G12C mutant): 33 nM
SMILES: C=CC(=O)N1CC(NC(=O)c2cnc(CNc3cc(C(C)(C)C)c(C)cc3O)n2C)C1 [Example 68, N-(1-Acryloylazetidin-3-yl)-2-(((5-(tert-butyl)-2-hydroxy-4-methylphenyl)amino)methyl)-1-methyl-1H-imidazole-5-carboxamide]

binding rate for G12C K-Ras4B (1-169) (G12C K-Ras4B (1-169)): E (less than 20%)
IC50 (KRAS G12C mutant): 463 nM
SMILES: C=CC(=O)N1CC(N(C)C(=O)c2sc(CNc3cc(C(C)(C)C)c(Cl)cc3O)nc2C)C1 [Example 35, N-(1-Acryloylazetidin-3-yl)-2-(((5-(tert-butyl)-4-chloro-2-hydroxyphenyl)amino)methyl)-N,4-dimethylthiazole-5-carboxamide]
